From patent US20230331675A1, “AROMATIC ETHYLENE COMPOUND AND PREPARATION METHOD THEREFOR, AND INTERMEDIATE, PHARMACEUTICAL COMPOSITION, AND APPLICATION THEREOF” (GUANGZHOU MAXINOVEL PHARMACEUTICALS CO., LTD., priority 2020, published 2023)

Each molecule was assayed against PD-1/PD-L1 (Homo sapiens (Human), UniProt Q9NZQ7) (assay: Homogeneous time-resolved fluorescence (HTRF) binding assay). Conditions: CisBio kit, read-out: IC50 of compounds binding to PD-1/PD-L1.
Chain of PD-1/PD-L1 (Q9NZQ7 19-238): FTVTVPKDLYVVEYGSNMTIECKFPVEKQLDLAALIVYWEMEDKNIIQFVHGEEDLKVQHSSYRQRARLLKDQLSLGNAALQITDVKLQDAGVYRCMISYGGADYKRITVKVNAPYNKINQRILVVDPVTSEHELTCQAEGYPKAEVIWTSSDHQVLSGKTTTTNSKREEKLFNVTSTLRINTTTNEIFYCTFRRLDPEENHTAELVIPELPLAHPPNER
Description: Effect embodiment 1: Homogenouse time-resolved fluorescence
Homogeneous time-resolved fluorescence (HTRF) binding assay was used to determine the binding ability of the compound of the present disclosure to PD-1/PD-L1.
The purchased kit (CisBio, #64CUS000C-1) contained reagents required for assays such as PD-1, PD-L1, anti-tag1-Eu, Anti-tag2-XL665, dilute buffer, and detection buffer.
1. The compound was formulated to 10 concentrations with a 3-fold gradient with 100% DMSO.
2. The DMSO solution of the compound was added to the dilute buffer, mixed thoroughly, then transferred to a 96-well plate.
3. PD-L1 was diluted with dilute buffer, then added to the above 96-well plate.
4. PD-1 was diluted with dilute buffer and added to the above 96-well plate, which was then incubated at room temperature for 30 minutes.
5. A portion of anti-tag1-Eu and a portion of anti-tag2-XL665 were added to the detection buffer, mixed thoroughly and transferred to the above 96-well plate.
6. The mixture in the above 96-well plate was incubated at room temperature for 1 to 24 hours.
7. HTRF values were read with Envision.
[2H]C([2H])([2H])Oc1cc(/C=C/c2cccc(-c3ccccc3)c2C#N)c(CN2CCCC[C@H]2C(=O)O)cc1Cl [Compound 52, (S,E)-1-(5-Chloro-2-(2-(2-cyano-[1,1′-biphenyl]-3-yl)vinyl)-4-(methoxy-d3)benzyl)piperidine-2-carboxylic acid] gave an IC50 greater than 10000 nM.
In the case of N#Cc1c(/C=C/c2cc(CO)c(CN3CCOC[C@H]3C(=O)O)cc2C(F)(F)F)cccc1-c1ccccc1 [Compound 21, (S,E)-4-(4-(2-(2-Cyano-[1,1′-biphenyl]-3-yl)vinyl)-2-hydroxymethyl-5-trifluoromethylbenzyl)morpholine-3-carboxylic acid], the IC50 is reported as 57.6 nM.
“(S,E)-1-(2-Methoxy-4-(2-(2-methyl-d3)-[1,1′-biphenyl]-3-yl)vinyl)-5-trifluoromethylbenzyl)piperidine-2-carboxylic acid [Compound 51]” showed an IC50 of 2.2 nM.
CS(=O)(=O)CCCOc1cc(/C=C/c2cccc(-c3ccccc3)c2C#N)c(CN2CCCC[C@H]2C(=O)O)cc1Cl [Compound 36] was tested, and the IC50 was greater than 10000 nM.
Cc1cc(CN2CCCC[C@H]2C(=O)O)c(C)cc1/C=C/c1cccc(-c2ccccc2)c1C#N [Compound 10] gave an IC50 of 4.2 nM.
Cc1cc(CN2CCCC[C@H]2C(=O)O)c(OCC#N)cc1/C=C/c1cccc(-c2ccccc2)c1C#N [Compound 48, (S,E)-1-(4-(2-(2-Cyano-[1,1′-biphenyl]-3-yl)vinyl)-2-(cyanomethoxy)-5-methylbenzyl)piperidine-2-carboxylic acid] was tested, and the IC50 was 8 nM.
Work on Cc1cc(CN2CCCC[C@H]2C(=O)O)c(OCc2cc(I)ccn2)cc1/C=C/c1cccc(-c2ccccc2)c1C [Compound 79, (S,E)-1-(2-((4-Iodo-pyridin-2-yl)methoxy)-5-methyl-4-(2-(2-methyl-[1,1′-biphenyl]-3-yl)vinyl)benzyl)piperidine-2-carboxylic acid] yielded an IC50 of 5.31 nM.
[2H]C([2H])([2H])Oc1cc(/C=C/c2cccc(-c3ccccc3)c2C)c(C(F)(F)F)cc1CN1CCCC[C@H]1C(=O)O [Compound 60, (S,E)-1-(2-(Methoxy-d3)-4-(2-(2-methyl-[1,1′-biphenyl]-3-yl)vinyl)-5-trifluoromethylbenzyl)piperidine-2-carboxylic acid] gave an IC50 of 0.59 nM.
For COCCOc1cc(/C=C/c2cccc(-c3ccccc3)c2C#N)c(C)cc1CN1CCOC[C@H]1C(=O)O [Compound 25, (S,E)-4-(4-(2-(2-Cyano-[1,1′-biphenyl]-3-yl)vinyl)-2-(2-methoxyethoxy)-5-methylbenzyl)morpholine-3-carboxylic acid], the IC50 was 9.1 nM.
With COc1cc(/C=C/c2cccc(-c3ccccc3)c2C)c(C)cc1CN1CCCC[C@H]1C(=O)O [Compound 70, (S,E)-1-(2-Methoxy-5-methyl-4-(2-(2-methyl-[1,1′-biphenyl]-3-yl)vinyl)benzyl)piperidine-2-carboxylic acid] the IC50 was 9.31 nM.
COCCOc1cc(/C=C/c2cccc(-c3ccccc3)c2C#N)c(CN2CCOC[C@H]2C(=O)O)cc1Cl [Compound 34, (S,E)-4-(5-Chloro-2-(2-(2-cyano-[1,1′-biphenyl]-3-yl)vinyl)-4-(2-methoxyethoxy)benzyl)morpholine-3-carboxylic acid] showed an IC50 greater than 10000 nM.
In the case of Cc1cc(/C=C/c2cccc(-c3ccccc3)c2C)c(Cl)cc1CN1CCNC[C@H]1C(=O)O [Compound 23, (S,E)-1-(5-Chloro-2-methyl-4-(2-(2-methyl-[1,1′-biphenyl]-3-yl)vinyl)benzyl)piperazine-2-carboxylic acid], the IC50 is reported as 186 nM.
Molecule COCCOc1cc(C)c(/C=C/c2cccc(-c3ccccc3)c2C#N)cc1CN1CCOC[C@H]1C(=O)O [Compound 44, (S,E)-4-(5-(2-(2-Cyano-[1,1′-biphenyl]-3-yl)vinyl)-2-(2-methoxyethoxy)-4-methylbenzyl)morpholine-3-carboxylic acid] has an IC50 of 265 nM.
Work on Cc1c(/C=C/c2ccc(CN3CCCC[C@H]3C(=O)O)cc2C(F)(F)F)cccc1-c1ccccc1 [Compound 4, (S,E)-1-(4-(2-(2-Methyl-[1,1′-biphenyl]-3-yl)vinyl)-3-trifluoromethylbenzyl)piperidine-2-carboxylic acid] yielded an IC50 of 10.7 nM.
Molecule COCCOc1cc(/C=C/c2cccc(-c3ccccc3)c2C#N)c(C)cc1CN1CCNC[C@H]1C(=O)O [Compound 27, (S,E)-1-(4-(2-(2-Cyano-[1,1′-biphenyl]-3-yl)vinyl)-2-(2-methoxyethoxy)-5-methylbenzyl)piperazine-2-carboxylic acid] has an IC50 of 57.2 nM.
For Cc1cc(CN[C@@](C)(CO)C(=O)O)c(C)cc1/C=C/c1cccc(-c2ccccc2)c1C#N [Compound 12, (S,E)-2-((4-(2-(2-Cyano-[1,1′-biphenyl]-3-yl)vinyl)-2,5-dimethylbenzyl)amino)-3-hydroxy-2-methylpropionic acid], the IC50 was 3.4 nM.
N#Cc1c(/C=C/c2cc(CO)c(CN3CCNC[C@H]3C(=O)O)cc2C(F)(F)F)cccc1-c1ccccc1 [Compound 28, (S,E)-1-(4-(2-(2-Cyano-[1,1′-biphenyl]-3-yl)vinyl)-2-hydroxymethyl-5-trifluoromethylbenzyl)piperazine-2-carboxylic acid] was tested, and the IC50 was 135 nM.
Work on Cc1c(/C=C/c2ccc(CN3CCCC[C@H]3C(=O)O)cc2Cl)cccc1-c1ccccc1 [Compound 3, (S,E)-1-(3-Chloro-4-(2-(2-methyl-[1,1′-biphenyl]-3-yl)vinyl)benzyl)piperidine-2-carboxylic acid] yielded an IC50 of 87.1 nM.
Cc1c(/C=C/c2cc(OCc3ccc(I)cc3)c(CN3CCCC[C@H]3C(=O)O)cc2C(F)(F)F)cccc1-c1ccccc1 [Compound 78] was tested, and the IC50 was 65.5 nM.
With N#Cc1c(/C=C/c2ccc(CN3CCCC[C@H]3C(=O)O)cc2C(F)(F)F)cccc1-c1ccccc1 [Compound 1, (S,E)-1-(4-(2-(2-Cyano-[1,1′-biphenyl]-3-yl)vinyl)-3-trifluoromethylbenzyl)piperidine-2-carboxylic acid] the IC50 was 10.2 nM.
COc1cc(/C=C/c2cccc(-c3ccccc3)c2C)c(C(F)(F)F)cc1CN1CCCC[C@@H]1C(=O)O [Compound 62, (R,E)-1-(2-Methoxy-4-(2-(2-methyl-[1,1′-biphenyl]-3-yl)vinyl)-5-trifluoromethylbenzyl)piperidine-2-carboxylic acid] was tested, and the IC50 was 7.42 nM.
In the case of N#Cc1c(/C=C/c2cc(CO)c(CN3CCCC[C@H]3C(=O)O)cc2C(F)(F)F)cccc1-c1ccccc1 [Compound 20, (S,E)-1-(4-(2-(2-Cyano-[1,1′-biphenyl]-3-yl)vinyl)-2-hydroxymethyl-5-trifluoromethylbenzyl)piperidine-2-carboxylic acid], the IC50 is reported as 3.7 nM.
With COCc1cc(/C=C/c2cccc(-c3ccccc3)c2C#N)c(C(F)(F)F)cc1CN1CCOC[C@H]1C(=O)O [Compound 50, (S,E)-4-(4-(2-(2-Cyano-[1,1′-biphenyl]-3-yl)vinyl)-2-(methoxymethyl)-5-trifluoromethylbenzyl)morpholine-3-carboxylic acid] the IC50 was 141 nM.
Work on COc1cc(/C=C/c2cccc(-c3ccccc3)c2C)c(C(F)(F)F)cc1CN1CCCC[C@H]1C(=O)O [Compound 6, (S,E)-1-(2-Methoxy-4-(2-(2-methyl-[1,1′-biphenyl]-3-yl)vinyl)-5-trifluoromethylbenzyl)piperidine-2-carboxylic acid] yielded an IC50 of 1.6 nM.
Cc1c(/C=C/c2cc(OCCCCF)c(CN3CCCC[C@H]3C(=O)O)cc2C(F)(F)F)cccc1-c1ccccc1 [Compound 85, (S,E)-1-(2-(4-Fluorobutoxy)-4-(2-(2-methyl-[1,1′-biphenyl]-3-yl)vinyl)-5-(trifluoromethyl)benzyl)piperidine-2-carboxylic acid] showed an IC50 of 4.34 nM.
Work on COc1cc(/C=C/c2cccc(-c3ccccc3)c2C#N)c(Cl)cc1CN1CCCC[C@H]1C(=O)O [Compound 57, (S,E)-1-(5-Chloro-4-(2-(2-cyano-[1,1′-biphenyl]-3-yl)vinyl)-2-methoxybenzyl)piperidine-2-carboxylic acid] yielded an IC50 of 4.4 nM.
Work on Cc1c(/C=C/c2cc(OCCF)c(CN3CCCC[C@H]3C(=O)O)cc2C(F)(F)F)cccc1-c1ccccc1 [Compound 87, (S,E)-1-(2-(2-Fluoroethoxy)-4-(2-(2-methyl-[1,1′-biphenyl]-3-yl)vinyl)-5-(trifluoromethyl)benzyl)piperidine-2-carboxylic acid] yielded an IC50 of 2.8 nM.
For Cc1c(/C=C/c2cc(OCc3cc(I)ccn3)c(CN3CCCC[C@H]3C(=O)O)cc2C(F)(F)F)cccc1-c1ccccc1 [Compound 80, (S,E)-1-(2-((4-Iodopyridin-2-yl)methoxy)-4-(2-(2-methyl-[1,1′-biphenyl]-3-yl)vinyl)-5-(trifluoromethyl)benzyl)piperidine-2-carboxylic acid], the IC50 was 3.97 nM.
Molecule Cc1ccc(OCCCCC#N)c(CN2CCCC[C@H]2C(=O)O)c1/C=C/c1cccc(-c2ccccc2)c1C#N [Compound 45, (S,E)-1-(2-(2-(2-Cyano-[1,1′-biphenyl]-3-yl)vinyl)-6-(4-cyanobutoxy)-3-methylbenzyl)piperidine-2-carboxylic acid] has an IC50 greater than 10000 nM.
COCCOc1cc(/C=C/c2cccc(-c3ccccc3)c2C#N)c(CN2CCCC[C@H]2C(=O)O)cc1Cl [Compound 33, (S,E)-1-(5-Chloro-2-(2-(2-cyano-[1,1′-biphenyl]-3-yl)vinyl)-4-(2-methoxyethoxy)benzyl)piperidine-2-carboxylic acid] was tested, and the IC50 was greater than 10000 nM.
Work on Cc1cc(OCCO)c(CN2CCOC[C@H]2C(=O)O)cc1/C=C/c1cccc(-c2ccccc2)c1C#N [Compound 42, (S,E)-4-(5-(2-(2-Cyano-[1,1′-biphenyl]-3-yl)vinyl)-2-(2-hydroxyethoxy)-4-methylbenzyl)morpholine-3-carboxylic acid] yielded an IC50 of 706 nM.
